In patent US10246462B2, “Chemokine receptor modulators and uses thereof” (FLX Bio, Inc., priority 2016, dated 2019) one finds IC50 data, which are given here for 24 compounds.

This test addresses CCR4 (Homo sapiens (Human), UniProt P51679). The test can be described thus: Calcium mobilization (Ca Flux) assay. It counts as cell-based. As to the method: Calcium Mobilization Assay. Calcium mobilization experiments may be performed by labeling the human T-cell line CEM with […] dye (45 min at room temperature), washing with PBS, and re-suspending into flux buffer (HBSS with 1% FBS).

Counter-ions that a name gives are not always drawn. Some results are limits rather than exact numbers.

Sequence of CCR4 (P51679 whole entry): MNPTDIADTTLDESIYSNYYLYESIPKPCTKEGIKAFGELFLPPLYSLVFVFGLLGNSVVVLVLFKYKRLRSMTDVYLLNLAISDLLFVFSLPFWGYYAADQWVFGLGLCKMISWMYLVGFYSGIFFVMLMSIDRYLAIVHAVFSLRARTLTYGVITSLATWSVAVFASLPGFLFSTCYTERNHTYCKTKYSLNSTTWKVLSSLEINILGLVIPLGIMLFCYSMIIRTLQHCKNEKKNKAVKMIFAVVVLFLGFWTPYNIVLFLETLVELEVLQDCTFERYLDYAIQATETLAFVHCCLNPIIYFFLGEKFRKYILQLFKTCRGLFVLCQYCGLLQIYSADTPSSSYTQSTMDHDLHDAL

As to `Cc1nn([C@H](C)c2ccc(Cl)cc2Cl)c2nc(N3CC[C@H](N4CCC[C@H]4CCC(=O)O)[C@H](C)C3)cnc12` [Example 42, 3-((S)-1-((3R,4S)-1-(1-((R)-1-(2,4-dichlorophenyl)ethyl)-3-methyl-1H-pyrazolo[3,4-b]pyrazin-6-yl)-3-methylpiperidin-4-yl)pyrrolidin-2-yl)propanoic acid hydrochloride], the IC50 fell in the range of 0.1 to 0.5 µM. The same measure for `C[C@@H]1CN(c2cnc3c(C#N)nn([C@H](C)c4ccc(Cl)cc4Cl)c3n2)CC[C@@H]1N1CCC[C@H]1CCC(=O)O` [Example 43, 3-((S)-1-((3R,4S)-1-(3-Cyano-1-((R)-1-(2,4-dichlorophenyl)ethyl)-1H-pyrazolo[3,4-b]pyrazin-6-yl)-3-methylpiperidin-4-yl)pyrrolidin-2-yl)propanoic acid hydrochloride]: below 0.1 µM; for `Cc1nn([C@H](C)c2ccc(Cl)cc2Cl)c2nc(N3CC[C@H](N4CCC[C@H]4CCC(N)=O)[C@H](C)C3)cnc12` [Example 44, 3-((S)-1-((3R,4S)-1-(1-((R)-1-(2,4-Dichlorophenyl)ethyl)-3-methyl-1H-pyrazolo[3,4-b]pyrazin-6-yl)-3-methylpiperidin-4-yl)pyrrolidin-2-yl)propanamide hydrochloride]: below 0.1 µM; for `Cc1nn([C@H](C)c2ccc(Cl)cc2Cl)c2nc(N3CCC(N4CCC[C@H]4CCN)[C@H](C)C3)cnc12` (stereo partly drawn) [Example 45, 3-((R)-1-((3R,4S)-1-(1-((R)-1-(2,4-Dichlorophenyl)ethyl)-3-methyl-1H-pyrazolo[3,4-b]pyrazin-6-yl)-3-methylpiperidin-4-yl)pyrrolidin-2-yl)ethan-1-amine]: 0.1 to 0.5 µM. The value for `C[C@@H]1CN(c2cnc3c(C#N)nn([C@H](C)c4ccc(Cl)cc4Cl)c3n2)CC[C@@H]1N1CCC[C@H]1CCC(N)=O` [Example 48, 3-((S)-1-((3R,4S)-1-(3-Cyano-1-((R)-1-(2,4-dichlorophenyl)ethyl)-1H-pyrazolo[3,4-b]pyrazin-6-yl)-3-methylpiperidin-4-yl)pyrrolidin-2-yl)propanamide 2,2,2-trifluoroacetate] was below 0.1 µM; that for `Cc1nn([C@H](C)c2ccc(Cl)cc2F)c2nc(N3CC[C@H](N4CCC[C@H]4CCC(=O)O)[C@H](C)C3)cnc12` [Example 49, 3-((S)-1-((3R,4S)-1-(1-((R)-1-(4-Chloro-2-fluorophenyl)ethyl)-3-methyl-1H-pyrazolo[3,4-b]pyrazin-6-yl)-3-methylpiperidin-4-yl)pyrrolidin-2-yl)propanoic acid 2,2,2-trifluoroacetate] was 0.1 to 0.5 µM.

With `Cc1nn([C@H](C)c2ccc(Cl)cc2Cl)c2nc(N3CCC(N4CCC[C@H]4CCC(=O)O)CC3)cnc12` [Example 51, 3-((S)-1-(1-(1-((R)-1-(2,4-Dichlorophenyl)ethyl)-3-methyl-1H-pyrazolo[3,4-b]pyrazin-6-yl)piperidin-4-yl)pyrrolidin-2-yl)propanoic acid 2,2,2-trifluoroacetate], the 50% inhibitory concentration (IC50) was in the range of 0.1 to 0.5 µM. The value for `Cc1nn([C@H](C)c2ccc(Cl)cc2Cl)c2nc(N3CC[C@H](N4CCC[C@H]4CCS(N)(=O)=O)[C@H](C)C3)cnc12` [Example 52, 2-((S)-1-((3R,4S)-1-(1-((R)-1-(2,4-Dichlorophenyl)ethyl)-3-methyl-1H-pyrazolo[3,4-b]pyrazin-6-yl)-3-methylpiperidin-4-yl)pyrrolidin-2-yl)ethane-1-sulfonamide hydrochloride] was below 0.1 µM.

For `Cc1nn([C@H](C)c2ccc(Cl)cc2Cl)c2nc(N3CC[C@@H](N4CCC[C@H]4CCS(N)(=O)=O)[C@@H](C)C3)cnc12` [Example 53, 2-((S)-1-((3S,4R)-1-(1-((R)-1-(2,4-Dichlorophenyl)ethyl)-3-methyl-1H-pyrazolo[3,4-b]pyrazin-6-yl)-3-methylpiperidin-4-yl)pyrrolidin-2-yl)ethane-1-sulfonamide hydrochloride], the IC50 fell in the range of 0.1 to 0.5 µM. The value for `Cc1nn([C@H](C)c2ccc(Cl)cc2Cl)c2nc(N3CCC(N4CCC[C@H]4CC(F)(F)C(=O)O)C(C)C3)cnc12` (stereo partly drawn) [Example 58, 3-((2S)-1-(1-(1-((R)-1-(2,4-Dichlorophenyl)ethyl)-3-methyl-1H-pyrazolo[3,4-b]pyrazin-6-yl)-3-methylpiperidin-4-yl)pyrrolidin-2-yl)-2,2-difluoropropanoic acid 2,2,2-trifluoroacetate] was above 0.5 µM. On to `Cc1nn([C@H](C)c2ccc(Cl)cc2Cl)c2nc(N3CCC(N4CCC[C@H]4CC(O)C(=O)O)C(C)C3)cnc12` (stereo partly drawn) [Example 59, 3-((2S)-1-(1-(1-((R)-1-(2,4-Dichlorophenyl)ethyl)-3-methyl-1H-pyrazolo[3,4-b]pyrazin-6-yl)-3-methylpiperidin-4-yl)pyrrolidin-2-yl)-2-hydroxypropanoic acid 2,2,2-trifluoroacetate], for which the half-inhibitory concentration (IC50) fell in the range of 0.1 to 0.5 µM.

On to `Cc1nn([C@H](C)c2ccc(Cl)cc2Cl)c2nc(N3CCC(N4CCC[C@H]4C(C)CC(=O)O)C(C)C3)cnc12` (stereo partly drawn) [Example 60, 3-((2S)-1-(1-(1-((R)-1-(2,4-Dichlorophenyl)ethyl)-3-methyl-1H-pyrazolo[3,4-b]pyrazin-6-yl)-3-methylpiperidin-4-yl)pyrrolidin-2-yl)butanoic acid 2,2,2-trifluoroacetate], for which the 50% inhibitory concentration (IC50) was 0.1 to 0.5 µM.

Regarding `Cc1nn([C@H](C)c2ccc(Cl)cc2Cl)c2nc(N3CCC(N4CCC(F)CC4)C(C)C3)cnc12` (stereo partly drawn) [Example 61, 1-((R)-1-(2,4-Dichlorophenyl)ethyl)-6-(4-fluoro-3′-methyl-[1,4′-bipiperidin]-1′-yl)-3-methyl-1H-pyrazolo[3,4-b]pyrazine hydrochloride], the IC50 is 0.1 to 0.5 µM. With `C[C@H](c1ccc(Cl)cc1Cl)n1nc(C#N)c2ncc(N3CCC(N4CCCC(CO)C4)CC3)nc21` (stereo partly drawn) [Example 62, 1-((R)-1-(2,4-Dichlorophenyl)ethyl)-6-(3-(hydroxymethyl)-[1,4′-bipiperidin]-1′-yl)-1H-pyrazolo[3,4-b]pyrazine-3-carbonitrile hydrochloride], the IC50 is 0.1 to 0.5 µM. The value for `Cc1nn([C@H](C)c2ccc(Cl)cc2Cl)c2nc(N3CC[C@H](N4CCC[C@H]4CO)[C@H](C(N)=O)C3)cnc12` [Example 63, (3R,4S)-1-(1-((R)-1-(2,4-Dichlorophenyl)ethyl)-3-methyl-1H-pyrazolo[3,4-b]pyrazin-6-yl)-4-((S)-2-(hydroxymethyl)pyrrolidin-1-yl)piperidine-3-carboxamide hydrochloride] was 0.1 to 0.5 µM; that for `C[C@H](c1ccc(Cl)cc1Cl)n1nc(C#N)c2ncc(N3CC[C@H](N4CCC[C@H]4C(=O)O)[C@H](C(C)(C)O)C3)nc21` [Example 64, ((3R,4S)-1-(3-Cyano-1-((R)-1-(2,4-dichlorophenyl)ethyl)-1H-pyrazolo[3,4-b]pyrazin-6-yl)-3-(2-hydroxypropan-2-yl)piperidin-4-yl)-L-proline hydrochloride] was above 0.5 µM; that for `Cc1nn([C@H](C)c2ccc(Cl)cc2Cl)c2nc(N3CC[C@H](N4CCC[C@@H](CC(=O)O)C4)[C@H](CO)C3)cnc12` [Example 65, 2-((3S,3′R,4′S)-1′-(1-((R)-1-(2,4-Dichlorophenyl)ethyl)-3-methyl-1H-pyrazolo[3,4-b]pyrazin-6-yl)-3′-(hydroxymethyl)-[1,4′-bipiperidin]-3-yl)acetic acid hydrochloride] was 0.1 to 0.5 µM. Consider `Cc1nn([C@H](C)c2ccc(Cl)cc2Cl)c2nc(N3CCC(C4CCCNC4)C(C)C3)cnc12` (stereo partly drawn) [Example 66, 1-((R)-1-(2,4-Dichlorophenyl)ethyl)-3-methyl-6-(3′-methyl-[3,4′-bipiperidin]-1′-yl)-1H-pyrazolo[3,4-b]pyrazine hydrochloride], for which the IC50 fell in the range of 0.1 to 0.5 µM. The same measure for `Cc1nn([C@H](C)c2ccc(Cl)cc2Cl)c2nc(N3CCC(C4CCCN(CCC(=O)O)C4)C(C)C3)cnc12` (stereo partly drawn) [Example 67, 3-(1′-(1-((R)-1-(2,4-Dichlorophenyl)ethyl)-3-methyl-1H-pyrazolo[3,4-b]pyrazin-6-yl)-3′-methyl-[3,4′-bipiperidin]-1-yl)propanoic acid hydrochloride]: 0.1 to 0.5 µM; for `Cc1nn([C@H](C)c2ccc(Cl)cc2Cl)c2nc(C3=CCC(N4CCC[C@H]4CO)CC3)cnc12` (stereo partly drawn) [Example 68, ((2S)-1-(4-(1-((R)-1-(2,4-Dichlorophenyl)ethyl)-3-methyl-1H-pyrazolo[3,4-b]pyrazin-6-yl)cyclohex-3-en-1-yl)pyrrolidin-2-yl)methanol]: 0.1 to 0.5 µM. The value for `C[C@@H]1C=C(c2cnc3c(C#N)nn([C@H](C)c4ccc(Cl)cc4Cl)c3n2)CC[C@@H]1N1CCC[C@H]1CO` [Example 69, 1-((R)-1-(2,4-Dichlorophenyl)ethyl)-6-((3R,4S)-4-((S)-2-(hydroxymethyl)pyrrolidin-1-yl)-3-methylcyclohex-1-en-1-yl)-1H-pyrazolo[3,4-b]pyrazine-3-carbonitrile hydrochloride] was 0.1 to 0.5 µM; that for `Cc1nn([C@H](C)c2ccc(Cl)cc2Cl)c2nc(C3=CCC(N4CCC[C@H]4C(=O)O)C(C)C3)cnc12` (stereo partly drawn) [Example 70, (4-(1-((R)-1-(2,4-Dichlorophenyl)ethyl)-3-methyl-1H-pyrazolo[3,4-b]pyrazin-6-yl)-6-methylcyclohex-3-en-1-yl)-L-proline trifluoroacetate] was 0.1 to 0.5 µM. With `Cc1nn([C@H](C)c2ccc(Cl)cc2Cl)c2nc(C3=CC[C@H](N4CCC[C@H]4CCC(=O)O)[C@H](C)C3)cnc12` [Example 71, 3-((S)-1-((1S,6R)-4-(1-((R)-1-(2,4-Dichlorophenyl)ethyl)-3-methyl-1H-pyrazolo[3,4-b]pyrazin-6-yl)-6-methylcyclohex-3-en-1-yl)pyrrolidin-2-yl)propanoic acid hydrochloride], the IC50 is below 0.1 µM. In the case of `CC1C=C(c2cnc3c(C#N)nn([C@H](C)c4ccc(Cl)cc4Cl)c3n2)CCC1N1CCC[C@H]1CCC(=O)O` (stereo partly drawn) [Example 73, 3-((2S)-1-(4-(3-Cyano-1-((R)-1-(2,4-dichlorophenyl)ethyl)-1H-pyrazolo[3,4-b]pyrazin-6-yl)-2-methylcyclohex-3-en-1-yl)pyrrolidin-2-yl)propanoic acid 2,2,2-trifluoroacetate], the IC50 fell in the range of 0.1 to 0.5 µM.
